Assay results published in ChEMBL document CHEMBL5223117, “Synthesis and biological evaluation of novel N, N'-diarylurea derivatives as potent antibacterial agents against MRSA” (Bioorg Med Chem Lett, 2022).
pIC50: −log10 of the molar value. In brackets after ≈: the same amount, converted by molar mass. Activity calls are given as the source filed them. The calls are words filed in the database; no cut-off is given here.

How the values were obtained:
Staphylococcus aureus [1] = experiment: Antibacterial activity against methicillin resistant Staphylococcus aureus 18-2; type: functional
[2] = test system: Staphylococcus epidermidis; experiment: Antibacterial activity against methicillin resistant Staphylococcus epidermidis 19-1; type: functional
Staphylococcus aureus [3] = experiment: Antibacterial activity against methicillin sensitive Staphylococcus aureus ATCC 29213; type: functional
[4] = Cytotoxicity against human HeLa cells by SRB assay; type: toxicity, cell-based
Staphylococcus aureus [5] = experiment: Antibacterial activity against methicillin sensitive Staphylococcus aureus ATCC 33591; type: functional
Staphylococcus aureus [6] = experiment: Antibacterial activity against methicillin sensitive Staphylococcus aureus 20-12; type: functional
Staphylococcus aureus [7] = experiment: Antibacterial activity against methicillin sensitive Staphylococcus aureus 15; type: functional
[8] = test system: Staphylococcus epidermidis; experiment: Antibacterial activity against methicillin sensitive Staphylococcus epidermidis 17-13; type: functional
Staphylococcus aureus [9] = experiment: Antibacterial activity against methicillin resistant Staphylococcus aureus 20-11; type: functional
[10] = test system: Staphylococcus epidermidis; experiment: Antibacterial activity against methicillin resistant Staphylococcus epidermidis 19-2; type: functional
[11] = test system: Staphylococcus epidermidis; experiment: Antibacterial activity against methicillin sensitive Staphylococcus epidermidis ATCC 12228; type: functional
[12] = Cytotoxicity against human HepG2 cells by SRB assay; type: toxicity, cell-based
Staphylococcus aureus [13] = experiment: Antibacterial activity against vancomycin intermediate and methicillin resistant Staphylococcus aureus ATCC 700698; type: functional
Staphylococcus aureus [14] = experiment: Antibacterial activity against methicillin resistant Staphylococcus aureus ATCC 43300; type: functional
Staphylococcus aureus [15] = experiment: Antibacterial activity against vancomycin intermediate and methicillin resistant Staphylococcus aureus ATCC 700699; type: functional
Staphylococcus aureus [16] = experiment: Bactericidal activity against vancomycin intermediate and methicillin resistant Staphylococcus aureus ATCC 700698; type: functional
Staphylococcus aureus [17] = experiment: Antibacterial activity against methicillin resistant Staphylococcus aureus 16-30; type: functional
Staphylococcus aureus [18] = experiment: Bactericidal activity against methicillin resistant Staphylococcus aureus ATCC 33591; type: functional
Enterococcus faecalis [19] = experiment: Selectivity ratio of MBC for bactericidal activity against Vanomycin-resistant Enterococcus faecalis ATCC 51299 to MIC for antibacterial activity against Vanomycin-resistant Enterococcus faecalis ATCC 51299; type: functional
Staphylococcus aureus [20] = experiment: Selectivity ratio of MBC for bactericidal activity against vancomycin intermediate and methicillin resistant Staphylococcus aureus ATCC 700698 to MIC for antibacterial activity against vancomycin intermediate and methicillin resistant Staphylococcus aureus ATCC 700698; type: functional
Enterococcus faecium [21] = experiment: Antibacterial activity against Vanomycin-resistant Enterococcus faecium 15-6; type: functional
Enterococcus faecium [22] = experiment: Antibacterial activity against Vanomycin-resistant Enterococcus faecium ATCC 51559; type: functional
Staphylococcus aureus [23] = experiment: Selectivity ratio of MBC for bactericidal activity against methicillin resistant Staphylococcus aureus 16-30 to MIC for antibacterial activity against methicillin resistant Staphylococcus aureus 16-30; type: functional
Enterococcus faecalis [24] = experiment: Bactericidal activity against Vanomycin-resistant Enterococcus faecalis ATCC 51299; type: functional
Enterococcus faecalis [25] = experiment: Antibacterial activity against Vanomycin-resistant Enterococcus faecalis ATCC 51575; type: functional
Staphylococcus aureus [26] = experiment: Bactericidal activity against methicillin resistant Staphylococcus aureus 16-30; type: functional
Enterococcus faecalis [27] = experiment: Antibacterial activity against Vanomycin-resistant Enterococcus faecalis ATCC 51299; type: functional
Staphylococcus aureus [28] = experiment: Selectivity ratio of MBC for bactericidal activity against methicillin resistant Staphylococcus aureus ATCC 33591 to MIC for antibacterial activity against methicillin resistant Staphylococcus aureus ATCC 33591; type: functional
Enterococcus faecium [29] = experiment: Selectivity ratio of MBC for bactericidal activity against Vanomycin-resistant Enterococcus faecium ATCC 700221 to MIC for antibacterial activity against Vanomycin-resistant Enterococcus faecium ATCC 700221; type: functional
Staphylococcus aureus [30] = experiment: Selectivity ratio of MBC for bactericidal activity against methicillin resistant Staphylococcus aureus ATCC 43300 to MIC for antibacterial activity against methicillin resistant Staphylococcus aureus ATCC 43300; type: functional
Enterococcus faecium [31] = experiment: Bactericidal activity against Vanomycin-resistant Enterococcus faecium ATCC 700221; type: functional
Staphylococcus aureus [32] = experiment: Antibacterial activity against methicillin resistant Staphylococcus aureus ATCC 33591; type: functional
Enterococcus faecium [33] = experiment: Antibacterial activity against Vanomycin-resistant Enterococcus faecium ATCC 700221; type: functional
Staphylococcus aureus [34] = experiment: Bactericidal activity against methicillin resistant Staphylococcus aureus ATCC 43300; type: functional

Structure (SMILES): O=C(Nc1ccc(OC(F)(F)F)cc1)N1CCN(c2ccc(Cl)c(C(F)(F)F)c2)C1=O
- MIC (Staphylococcus aureus [1]): inactive
- MIC [2]: inactive
- MIC (Staphylococcus aureus [3]): inactive
- pIC50 [4]: 4.00
- MIC (Staphylococcus aureus [5]): inactive
- MIC (Staphylococcus aureus [6]): inactive
- MIC (Staphylococcus aureus [7]): inactive
- MIC [8]: inactive
- MIC (Staphylococcus aureus [9]): inactive
- MIC [10]: inactive
- MIC [11]: inactive
- pIC50 [12]: 4.00
- MIC (Staphylococcus aureus [13]): inactive
- MIC (Staphylococcus aureus [14]): inactive
- MIC (Staphylococcus aureus [15]): inactive

Structure (SMILES): O=C(Nc1ccc(OC(F)(F)F)cc1)Nc1ccc(Cl)c(C(F)(F)F)c1
- MIC (Staphylococcus aureus [1]): 0.3 µM (≈ 0.12 µg/mL)
- MBC (Staphylococcus aureus [16]): > 161 µM
- MIC [2]: 1.25 µM (≈ 0.498 µg/mL)
- MIC (Staphylococcus aureus [17]): 2.51 µM (≈ 1 µg/mL)
- MIC (Staphylococcus aureus [3]): 0.63 µM (≈ 0.251 µg/mL)
- pIC50 [4]: 5.03
- MBC (Staphylococcus aureus [18]): > 161 µM
- MIC (Staphylococcus aureus [5]): 1.25 µM (≈ 0.498 µg/mL)
- Ratio (Enterococcus faecalis [19]): >128
- Ratio (Staphylococcus aureus [20]): >255
- MIC (Enterococcus faecium [21]): 2.51 µM (≈ 1 µg/mL)
- MIC (Staphylococcus aureus [6]): 1.25 µM (≈ 0.498 µg/mL)
- MIC (Enterococcus faecium [22]): 2.51 µM (≈ 1 µg/mL)
- Ratio (Staphylococcus aureus [23]): >32
- MBC (Enterococcus faecalis [24]): > 321 µM
- MIC (Enterococcus faecalis [25]): 2.51 µM (≈ 1 µg/mL)
- MBC (Staphylococcus aureus [26]): > 80.3 µM
- MIC (Staphylococcus aureus [7]): 1.25 µM (≈ 0.498 µg/mL)
- MIC [8]: 0.63 µM (≈ 0.251 µg/mL)
- MIC (Enterococcus faecalis [27]): 2.51 µM (≈ 1 µg/mL)
- MIC (Staphylococcus aureus [9]): 0.63 µM (≈ 0.251 µg/mL)
- Ratio (Staphylococcus aureus [28]): >128
- Ratio (Enterococcus faecium [29]): >257
- Ratio (Staphylococcus aureus [30]): >255
- MBC (Enterococcus faecium [31]): > 321 µM
- MIC (Staphylococcus aureus [32]): 1.25 µM (≈ 0.498 µg/mL)
- MIC [10]: 1.25 µM (≈ 0.498 µg/mL)
- MIC [11]: 1.25 µM (≈ 0.498 µg/mL)
- MIC (Enterococcus faecium [33]): 1.25 µM (≈ 0.498 µg/mL)
- MBC (Staphylococcus aureus [34]): > 161 µM
- pIC50 [12]: 5.20
- MIC (Staphylococcus aureus [13]): 0.63 µM (≈ 0.251 µg/mL)
- MIC (Staphylococcus aureus [14]): 0.63 µM (≈ 0.251 µg/mL)
- MIC (Staphylococcus aureus [15]): 0.15 µM (≈ 0.0598 µg/mL)

Structure (SMILES): O=C(Nc1ccc(C(F)(F)F)cc1)Nc1ccc(Cl)c(C(F)(F)F)c1
- MIC (Staphylococcus aureus [1]): 10.4 µM (≈ 4 µg/mL)
- MIC [2]: 10.4 µM (≈ 4 µg/mL)
- MIC (Staphylococcus aureus [3]): 20.9 µM (≈ 8 µg/mL)
- MIC (Staphylococcus aureus [5]): 10.4 µM (≈ 4 µg/mL)
- MIC (Enterococcus faecium [21]): 20.9 µM (≈ 8 µg/mL)
- MIC (Staphylococcus aureus [6]): 20.9 µM (≈ 8 µg/mL)
- MIC (Enterococcus faecium [22]): 41.8 µM (≈ 16 µg/mL)
- MIC (Enterococcus faecalis [25]): 20.9 µM (≈ 8 µg/mL)
- MIC (Staphylococcus aureus [7]): 10.4 µM (≈ 4 µg/mL)
- MIC [8]: 20.9 µM (≈ 8 µg/mL)
- MIC (Enterococcus faecalis [27]): 41.8 µM (≈ 16 µg/mL)
- MIC (Staphylococcus aureus [9]): 20.9 µM (≈ 8 µg/mL)
- MIC [10]: 10.4 µM (≈ 4 µg/mL)
- MIC [11]: 20.9 µM (≈ 8 µg/mL)
- MIC (Enterococcus faecium [33]): 41.8 µM (≈ 16 µg/mL)
- MIC (Staphylococcus aureus [13]): 20.9 µM (≈ 8 µg/mL)
- MIC (Staphylococcus aureus [14]): 20.9 µM (≈ 8 µg/mL)
- MIC (Staphylococcus aureus [15]): 10.4 µM (≈ 4 µg/mL)

Structure (SMILES): O=C(Nc1ccc(Cl)cc1)Nc1ccc(Cl)c(C(F)(F)F)c1 [CLOFLUCARBAN]
- MIC (Staphylococcus aureus [1]): 0.34 µM (≈ 0.119 µg/mL)
- MBC (Staphylococcus aureus [16]): > 22.9 µM
- MIC [2]: 0.72 µM (≈ 0.251 µg/mL)
- MIC (Staphylococcus aureus [17]): 0.72 µM (≈ 0.251 µg/mL)
- MIC (Staphylococcus aureus [3]): 0.34 µM (≈ 0.119 µg/mL)
- pIC50 [4]: 5.35
- MBC (Staphylococcus aureus [18]): > 45.8 µM
- MIC (Staphylococcus aureus [5]): 0.34 µM (≈ 0.119 µg/mL)
- Ratio (Enterococcus faecalis [19]): >128
- Ratio (Staphylococcus aureus [20]): >32
- MIC (Enterococcus faecium [21]): 2.86 µM (≈ 0.999 µg/mL)
- MIC (Staphylococcus aureus [6]): 1.43 µM (≈ 0.499 µg/mL)
- MIC (Enterococcus faecium [22]): 1.43 µM (≈ 0.499 µg/mL)
- Ratio (Staphylococcus aureus [23]): >32
- MBC (Enterococcus faecalis [24]): > 183 µM
- MIC (Enterococcus faecalis [25]): 2.86 µM (≈ 0.999 µg/mL)
- MBC (Staphylococcus aureus [26]): > 22.9 µM
- MIC (Staphylococcus aureus [7]): 0.72 µM (≈ 0.251 µg/mL)
- MIC [8]: 0.72 µM (≈ 0.251 µg/mL)
- MIC (Enterococcus faecalis [27]): 1.43 µM (≈ 0.499 µg/mL)
- MIC (Staphylococcus aureus [9]): 0.72 µM (≈ 0.251 µg/mL)
- Ratio (Staphylococcus aureus [28]): >135
- Ratio (Enterococcus faecium [29]): >64
- Ratio (Staphylococcus aureus [30]): >64
- MBC (Enterococcus faecium [31]): > 91.7 µM
- MIC (Staphylococcus aureus [32]): 0.34 µM (≈ 0.119 µg/mL)
- MIC [10]: 0.72 µM (≈ 0.251 µg/mL)
- MIC [11]: 0.72 µM (≈ 0.251 µg/mL)
- MIC (Enterococcus faecium [33]): 1.43 µM (≈ 0.499 µg/mL)
- MBC (Staphylococcus aureus [34]): > 45.8 µM
- pIC50 [12]: 5.11
- MIC (Staphylococcus aureus [13]): 0.72 µM (≈ 0.251 µg/mL)
- MIC (Staphylococcus aureus [14]): 0.72 µM (≈ 0.251 µg/mL)
- MIC (Staphylococcus aureus [15]): 0.34 µM (≈ 0.119 µg/mL)

Structure (SMILES): CNC(=O)c1cc(Oc2ccc(NC(=O)Nc3ccc(Cl)c(C(F)(F)F)c3)cc2)ccn1 [SORAFENIB]
- MIC (Staphylococcus aureus [1]): 17.2 µM (≈ 8 µg/mL)
- MIC [2]: 4.3 µM (≈ 2 µg/mL)
- MIC (Staphylococcus aureus [3]): 8.61 µM (≈ 4 µg/mL)
- pIC50 [4]: 5.48
- MIC (Staphylococcus aureus [5]): 8.61 µM (≈ 4 µg/mL)
- MIC (Enterococcus faecium [21]): 275 µM (≈ 128 µg/mL)
- MIC (Staphylococcus aureus [6]): 8.61 µM (≈ 4 µg/mL)
- MIC (Enterococcus faecium [22]): 275 µM (≈ 128 µg/mL)
- MIC (Enterococcus faecalis [25]): 275 µM (≈ 128 µg/mL)
- MIC (Staphylococcus aureus [7]): 4.3 µM (≈ 2 µg/mL)
- MIC [8]: 8.61 µM (≈ 4 µg/mL)
- MIC (Enterococcus faecalis [27]): 275 µM (≈ 128 µg/mL)
- MIC (Staphylococcus aureus [9]): 8.61 µM (≈ 4 µg/mL)
- MIC [10]: 4.3 µM (≈ 2 µg/mL)
- MIC [11]: 4.3 µM (≈ 2 µg/mL)
- MIC (Enterococcus faecium [33]): 275 µM (≈ 128 µg/mL)
- MIC (Staphylococcus aureus [13]): 17.2 µM (≈ 8 µg/mL)
- MIC (Staphylococcus aureus [14]): 17.2 µM (≈ 8 µg/mL)
- MIC (Staphylococcus aureus [15]): 4.3 µM (≈ 2 µg/mL)
